Assays:
HIV-1 (IIIB) = assay: Antiviral assay in MT-4 cells; format: cell-based; conditions: Human immunodeficiency virus 1, MT4, 120 h; HIV-1 IIIB in MT-4 cells, 5 days incubation, Cell Titer Glo; read-out: MT4 EC50
Outline: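 Read-out: CellTiter-Glo luminescence after 5 days at 37 °C, reflecting survival of MT-4 cells infected with HIV-1 IIIB (1:250 fresh stock dilution) versus mock-infected. Compounds serially diluted into RPMI with 10% FBS; AZT at 5 μM served as positive control.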

[1] = Cytotoxicity assay in MT-4 cells; format: cell-based; conditions: human; uninfected MT-4 cells, 5 days incubation, Cell Titer Glo; read-out: MT4 CC50
Outline: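 Viability read by Cell Titer Glo luminescence after 5 days at 37 °C. MT-4 cells, not infected, in complete RPMI (10% FBS), received compound dilution series. Base cytotoxicity set with […] puromycin.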

Row | SMILES | EC50 (HIV-1 (IIIB)) | CC50 at 5 days [1]
1 | CCCCCCCCCOC(=O)OCOc1c2n(cc(C(=O)NCc3ccc(F)cc3F)c1=O)[C@@H]1CN(C2=O)[C@@H](C)CC[C@]12CC(C)=NO2 [Example 186, (((3′S,5S,7′R)-10′-((2,4-difluorobenzyl)carbamoyl)-3,3′-dimethyl-1′,11′-dioxo-1′,4′,5′,11′-tetrahydro-3′H,4H,7′H-spiro[isoxazole-5,6′-[2,7]methanopyrido[1,2-a][1,4]diazonin]-12′-yl)oxy)methyl nonyl carbonate] | 2.24 nM | ≥ 50000 nM
2 | CCCCCCCCCOC(=O)OCOc1c2n(cc(C(=O)NCc3ccc(F)cc3F)c1=O)[C@@H]1CN(C2=O)[C@@H](C)CC[C@]12CC(OC)=NO2 [Example 187, (((3′S,5S,7′R)-10′-((2,4-difluorobenzyl)carbamoyl)-3-methoxy-3′-methyl-1′,11′-dioxo-1′,4′,5′,11′-tetrahydro-3′H,4H,7′H-spiro[isoxazole-5,6′-[2,7]methanopyrido[1,2-a][1,4]diazonin]-12′-yl)oxy)methyl nonyl carbonate] | 3.25 nM | 43900 nM
3 | CCCCCCCCCCOC(=O)OCOc1c2n(cc(C(=O)NCc3ccc(F)cc3F)c1=O)[C@@H]1CN(C2=O)[C@@H](C)CC[C@]12CC(C)=NO2 [Example 188, decyl ((((3′S,5S,7′R)-10′-((2,4-difluorobenzyl)carbamoyl)-3,3′-dimethyl-1′,11′-dioxo-1′,4′,5′,11′-tetrahydro-3′H,4H,7′H-spiro[isoxazole-5,6′-[2,7]methanopyrido[1,2-a][1,4]diazonin]-12′-yl)oxy)methyl) carbonate] | 1.55 nM | 38500 nM
4 | CCCCCCCCCCOC(=O)OCOc1c2n(cc(C(=O)NCc3ccc(F)cc3F)c1=O)[C@@H]1CN(C2=O)[C@@H](C)CC[C@]12CC(OC)=NO2 [Example 189, decyl ((((3′S,5S,7′R)-10′-((2,4-difluorobenzyl)carbamoyl)-3-methoxy-3′-methyl-1′,11′-dioxo-1′,4′,5′,11′-tetrahydro-3′H,4H,7′H-spiro[isoxazole-5,6′-[2,7]methanopyrido[1,2-a][1,4]diazonin]-12′-yl)oxy)methyl) carbonate] | 3.54 nM | ≥ 50000 nM
5 | CCCCCCCCCCCCOC(=O)OCOc1c2n(cc(C(=O)NCc3ccc(F)cc3F)c1=O)[C@@H]1CN(C2=O)[C@@H](C)CC[C@]12CC(C)=NO2 [Example 190, (((3′S,5S,7′R)-10′-((2,4-difluorobenzyl)carbamoyl)-3,3′-dimethyl-1′,11′-dioxo-1′,4′,5′,11′-tetrahydro-3′H,4H,7′H-spiro[isoxazole-5,6′-[2,7]methanopyrido[1,2-a][1,4]diazonin]-12′-yl)oxy)methyl dodecyl carbonate] | 0.495 nM | ≥ 50000 nM
6 | CCCCCCCCCCCCOC(=O)OCOc1c2n(cc(C(=O)NCc3ccc(F)cc3F)c1=O)[C@@H]1CN(C2=O)[C@@H](C)CC[C@]12CC(OC)=NO2 [Example 191, (((3′S,5S,7′R)-10′-((2,4-difluorobenzyl)carbamoyl)-3-methoxy-3′-methyl-1′,11′-dioxo-1′,4′,5′,11′-tetrahydro-3′H,4H,7′H-spiro[isoxazole-5,6′-[2,7]methanopyrido[1,2-a][1,4]diazonin]-12′-yl)oxy)methyl dodecyl carbonate] | 1.67 nM | ≥ 50000 nM
7 | CCCCCCCCCCCCCCCCOC(=O)OCOc1c2n(cc(C(=O)NCc3ccc(F)cc3F)c1=O)[C@@H]1CN(C2=O)[C@@H](C)CC[C@]12CC(C)=NO2 [Example 194, (((3′S,5S,7′R)-10′-((2,4-difluorobenzyl)carbamoyl)-3,3′-dimethyl-1′,11′-dioxo-1′,4′,5′,11′-tetrahydro-3′H,4H,7′H-spiro[isoxazole-5,6′-[2,7]methanopyrido[1,2-a][1,4]diazonin]-12′-yl)oxy)methyl hexadecyl carbonate] | 16.7 nM | ≥ 50000 nM
8 | CCCCCCCCCCCCCCCCOC(=O)OCOc1c2n(cc(C(=O)NCc3ccc(F)cc3F)c1=O)[C@@H]1CN(C2=O)[C@@H](C)CC[C@]12CC(OC)=NO2 [Example 195, (((3′S,5S,7′R)-10′-((2,4-difluorobenzyl)carbamoyl)-3-methoxy-3′-methyl-1′,11′-dioxo-1′,4′˜5′,11′-tetrahydro-3′H,4H,7′H-spiro[isoxazole-5,6′-[2,7]methanopyrido[1,2-a][1,4]diazonin]-12′-yl)oxy)methyl hexadecyl carbonate] | 33.5 nM | ≥ 50000 nM
9 | CCCCCCCCCCCCCCCCCCOC(=O)OCOc1c2n(cc(C(=O)NCc3ccc(F)cc3F)c1=O)[C@@H]1CN(C2=O)[C@@H](C)CC[C@]12CC(C)=NO2 [Example 196, (((3′S,5S,7′R)-10′-((2,4-difluorobenzyl)carbamoyl)-3,3′-dimethyl-1′,11′-dioxo-1′,4′,5′,11′-tetrahydro-3′H,4H,7′H-spiro[isoxazole-5,6′-[2,7]methanopyrido[1,2-a][1,4]diazonin]-12′-yl)oxy)methyl octadecyl carbonate] | 18.4 nM | ≥ 50000 nM
10 | CCCCCCCCCCCCCCCCCCOC(=O)OCOc1c2n(cc(C(=O)NCc3ccc(F)cc3F)c1=O)[C@@H]1CN(C2=O)[C@@H](C)CC[C@]12CC(OC)=NO2 [Example 197, (((3′S,5S,7′R)-10′-((2,4-difluorobenzyl)carbamoyl)-3-methoxy-3′-methyl-1′,11′-dioxo-1′,4′,5′,11′-tetrahydro-3′H,4H,7′H-spiro[isoxazole-5,6′-[2,7]methanopyrido[1,2-a][1,4]diazonin]-12′-yl)oxy)methyl octadecyl carbonate] | 41.2 nM | ≥ 50000 nM
11 | COC1=NO[C@@]2(CC[C@H](C)N3C[C@H]2n2cc(C(=O)NCc4ccc(F)cc4F)c(=O)c(OCOC(=O)OC(C)C)c2C3=O)C1 [Example 198, (((3′S,5S,7′R)-10′-((2,4-difluorobenzyl)carbamoyl)-3-methoxy-3′-methyl-1′,11′-dioxo-1′,4′,5′,11′-tetrahydro-3′H,4H,7′H-spiro[isoxazole-5,6′-[2,7]methanopyrido[1,2-a][1,4]diazonin]-12′-yl)oxy)methyl isopropyl carbonate] | 6.29 nM | ≥ 50000 nM
12 | CC1=NO[C@@]2(CC[C@H](C)N3C[C@H]2n2cc(C(=O)NCc4ccc(F)cc4F)c(=O)c(OCOC(=O)OCC(C)C)c2C3=O)C1 [Example 199, (((3′S,5S,7′R)-10′-((2,4-difluorobenzyl)carbamoyl)-3,3′-dimethyl-1′,11′-dioxo-1′,4′,5′,11′-tetrahydro-3′H,4H,7′H-spiro[isoxazole-5,6′-[2,7]methanopyrido[1,2-a][1,4]diazonin]-12′-yl)oxy)methyl isobutyl carbonate] | 3.87 nM | 15500 nM
13 | COC1=NO[C@@]2(CC[C@H](C)N3C[C@H]2n2cc(C(=O)NCc4ccc(F)cc4F)c(=O)c(OCOC(=O)OCC(C)C)c2C3=O)C1 [Example 200, (((3′S,5S,7′R)-10′-((2,4-difluorobenzyl)carbamoyl)-3-methoxy-3′-methyl-1′,11′-dioxo-1′,4′,5′,11′-tetrahydro-3′H,4H,7′H-spiro[isoxazole-5,6′-[2,7]methanopyrido[1,2-a][1,4]diazonin]-12′-yl)oxy)methyl isobutyl carbonate] | 1.9 nM | 15200 nM
14 | CC1=NO[C@@]2(CC[C@H](C)N3C[C@H]2n2cc(C(=O)NCc4ccc(F)cc4F)c(=O)c(OCOC(=O)OCCC(C)C)c2C3=O)C1 [Example 201, (((3′S,5S,7′R)-10′-((2,4-difluorobenzyl)carbamoyl)-3,3′-dimethyl-1′,11′-dioxo-1′,4′,5′,11′-tetrahydro-3′H,4H,7′H-spiro[isoxazole-5,6′-[2,7]methanopyrido[1,2-a][1,4]diazonin]-12′-yl)oxy)methyl isopentyl carbonate] | 4.47 nM | 16900 nM
15 | COC1=NO[C@@]2(CC[C@H](C)N3C[C@H]2n2cc(C(=O)NCc4ccc(F)cc4F)c(=O)c(OCOC(=O)OCCC(C)C)c2C3=O)C1 [Example 202, (((3′S,5S,7′R)-10′-((2,4-difluorobenzyl)carbamoyl)-3-methoxy-3′-methyl-1′,11′-dioxo-1′,4′,5′,11′-tetrahydro-3′H,4H,7′H-spiro[isoxazole-5,6′-[2,7]methanopyrido[1,2-a][1,4]diazonin]-12′-yl)oxy)methyl isopentyl carbonate] | 2.71 nM | 21600 nM
16 | CC1=NO[C@@]2(CC[C@H](C)N3C[C@H]2n2cc(C(=O)NCc4ccc(F)cc4F)c(=O)c(OCOC(=O)OCCCC(C)C)c2C3=O)C1 [Example 203, (((3′S,5S,7′R)-10′-((2,4-difluorobenzyl)carbamoyl)-3,3′-dimethyl-1′,11′-dioxo-1′,4′,5′,11′-tetrahydro-3′H,4H,7′H-spiro[isoxazole-5,6′-[2,7]methanopyrido[1,2-a][1,4]diazonin]-12′-yl)oxy)methyl (4-methylpentyl) carbonate] | 3.56 nM | 26400 nM
17 | COC1=NO[C@@]2(CC[C@H](C)N3C[C@H]2n2cc(C(=O)NCc4ccc(F)cc4F)c(=O)c(OCOC(=O)OCCCC(C)C)c2C3=O)C1 [Example 204, (((3′S,5S,7′R)-10′-((2,4-difluorobenzyl)carbamoyl)-3-methoxy-3′-methyl-1′,11′-dioxo-1′,4′,5′,11′-tetrahydro-3′H,4H,7′H-spiro[isoxazole-5,6′-[2,7]methanopyrido[1,2-a][1,4]diazonin]-12′-yl)oxy)methyl (4-methylpentyl) carbonate] | 3.82 nM | 29800 nM
